From patent US20050281764A1, “Use of EGF-R protein tyrosine kinase inhibitors for preventing photoaging in human skin” (priority 2000, published 2005)

Assays:
[1] = system: IRAK (IL-1 Receptor-Activated Kinase); experiment: IRAK phosphorylation/activity in cells in culture; assay type: cell-based
Source text: IRAK (IL-1 Receptor-Activated Kinase) is a protein […] kinase (enzyme) that binds to and is activated by IL-1R (the IL-1 receptor) and in turn activates a pathway that leads to induction of c-JUN kinase, MMPs, and thus collagen degradation.

c-JUN kinase = c-JUN kinase activity (phosphorylation of GST-c-jun) in cultured human keratinocytes after UV; assay type: cell-based
MMP-1 mRNA = MMP-1 mRNA induced by UV radiation in skin of human volunteers (FIG. 4); assay type: in vivo; conditions: 5% genistein in DMSO, topical, occluded 24 hours; 2 MEDs UV; biopsy 24 hours after exposure; vs vehicle-treated skin
Procedure: The same procedure as described above was repeated, except that biopsy for MMP-1 mRNA was taken 24 hours after exposure to the UV radiation.

cJUN protein = cJUN protein induced by UV radiation in skin of human volunteers (FIG. 3); assay type: in vivo; conditions: 5% genistein in DMSO, topical, occluded 24 hours; 2 MEDs UV; biopsy 8 hours after exposure; vs vehicle-treated skin
Procedure: The same procedure as described above was repeated, except that biopsy for cJUN protein was taken 8 hours after exposure to the UV radiation. […] The inset in the figure is a Western blot showing the amount of cJUN protein in genistein-treated versus vehicle-treated skin.

JNK = JNK activation in UV-irradiated skin of human volunteers (FIG. 2); conditions: occluded 24 hours
Procedure: Human volunteers, each having given informed consent, were used to determine the effect, if any, of pretreatment of their skin with an EGF-R PTK inhibitor prior to exposure of the skin to UV radiation. […] On the hip or buttock skin of volunteers, the test solution was placed (or on adjacent areas if both solutions were used), and the areas occluded for 24 hours; thereafter, the area was biopsied, or it was exposed to 2 MEDs of UV radiation and biopsied after exposure.
After the volunteers' skin was occuled for 24 hours, it was biopsied, and other areas were exposed to 2 MEDs of UV radiation and then biopsied about 4 hours thereafter.

Row | SMILES | phosphorylated IRAK ([1]; PD 153035-treated cells exposed to IL-1) | IRAK activity ([1]; cells in culture treated with PD 153035 alone, no challenge) | phosphorylated IRAK ([1]; cells treated with PD 153035 and then challenged with UV or EGF) | phospho-GST-c-jun protein (c-JUN kinase; cultured human keratinocytes not exposed to UV) | phospho-GST-c-jun protein levels (c-JUN kinase; cultured human keratinocytes pretreated, then exposed to UV radiation) | increase in MMP-1 mRNA induced by UV (MMP-1 mRNA) | increase in the amount of cJUN protein after UV exposure (cJUN protein) | skin penetration of the topical solution (JNK; 5% genistein in DMSO on human hip or buttock skin, inferred from the JNK results) | JNK activation (JNK; 5% genistein in DMSO, topical, 2 MEDs UV, biopsy about 4 hours after exposure)
1 | COc1cc2ncnc(Nc3cccc(Br)c3)c2cc1OC [PD 153035] | no reduction in phosphorylated IRAK | minimal baseline amount of IRAK activity | clearly had less phosphorylated IRAK | baseline amount of phospho-GST-c-jun protein | comparable with the baseline levels |  |  |  | 
2 | O=c1c(-c2ccc(O)cc2)coc2cc(O)cc(O)c12 [genistein, 4′,5,7-trihydroxyisoflavone] |  |  |  |  |  | significantly inhibited | significantly inhibited | able to penetrate the skin | significantly reduced the amount of JNK activated
